According to patent US11925643B2, “Toll-like receptor 4 (TLR4) inhibitors and use thereof” (MOR RESEARCH APPLICATIONS LTD., priority 2018, dated 2024):
Residues, ends and D or L forms follow the SMILES beside them.

Assays:
primary cardiomyocytes = assay: CK and LDH release by primary cardiomyocytes under hypoxia (MI like); type: cell-based, Rat
Experimental: Rat hearts (1-2 days old) were removed under sterile conditions and washed three times in phosphate-buffered saline (PBS) to remove excess blood cells. The hearts were minced and then gently agitated in RBD (a solution of proteolytic enzymes (Biological Institute, Ness-Ziona, Israel) prepared from fig tree extract, and diluted 1:100 in Ca^2+- and Mg^2+-free PBS) for a few cycles of 10 min each. Dulbecco's modified Eagle's medium (Biological Industries, Kibbutz Beit Haemek, Israel) containing 10% horse serum was added to supernatant suspensions containing the dissociated cells. The mixture was centrifuged at 1400 rpm for 4 min. The supernatant phase was discarded, and the cells were re-suspended. The cell suspension was diluted to 1.0×10^6 cells/ml, unless stated otherwise, and 1.5 ml of the suspension was placed in 35-mm plastic culture dishes collagen- or gelatin-coated, or on coated cover glasses. The cultures were incubated in a humidified atmosphere of 5% CO2 and 95% air at 37° C.
Using a vacuum pump, the oxygen rich air was evacuated from an incubator containing plates with cell cultures, and a 100% Argon atmosphere was let in, while maintaining a temperature of 37° C. The cell cultures were washed with PBS twice to remove glucose from the medium. Hypoxic treated cells were cultures in PBS without glucose. These cells lasted for 180 minutes.
Primary cardiomyocytes which were obtained by method described above, were treated with exemplary decoy peptides described herein. After 30 minutes of incubation, sepsis like (LPS treatment for 6 hours), or myocardial infarction (MI) like (hypoxia for 3 hours) conditions were imposed to measure the release of CK and LDH to the medium and determine the potential cardioprotective effect of the tested decoy peptides. Cytotoxicity and level of cell damage were assessed by spectrophotometric measurement of lactate dehydrogenase (LDH) and creatine kinase (CK) activities (at 30° C.). Results are presented as CK and LDH release in arbitrary units (a.u.)
Activity of LDH and CK was determined in the cell-culture medium (25 μl) transferred into 96-well plates, using commercial L-LDH/CK kits (such as those manufactured, e.g., by Sigma-Aldrich, BioVision™ or Thermo Fisher Scientific®).
Primary cardiomyocytes were treated with peptides and peptidomimetics of SEQ ID NOs:1-7 provided at concentrations ranging from 1 μM to 20 μM. Following 30 minutes of incubation, sepsis like (LPS treatment for 6 hours) or MI like (hypoxia for 3 hours) conditions were induced to determine the potential cardioprotective effect of the tested compounds. Creatine kinase (CK) and lactate dehydrogenase (LDH) activity were assayed to determine the level of cellular damage and cell protection effect. The experimental procedure is described in Materials and Methods above. Results are presented as CK and LDH release in arbitrary units (a.u.).

IκB = IκB protein level by Western blot in hypoxic cardiomyocytes; type: cell-based
Experimental: Frozen tissue/cell cultures of liver or heart were pulverized under liquid nitrogen and placed in a homogenization buffer ([…] phosphate buffer, […] sucrose, […] EDTA, […] phenylmethylsulfonyl fluoride (PMSF), and 0.1% vol/vol tergitol, pH 7.5). Myocytes from cell cultures were homogenized in lysis buffer.
Homogenates were centrifuged at 12K rpm for 10 minutes at 4° C., the supernatant was isolated, and protein levels were visualized by immunoblotting with antibodies. Briefly, proteins (60 μg/sample) were separated using SDS-PAGE gel (12%-15%) under denaturing conditions and electro-transferred (blotted) onto nitrocellulose (Bio-Rad) for 1 hour at 100 V. Membranes were blocked with 5% nonfat milk in Tris-buffered saline with 0.1% Tween® 20 (TBST) for 1 hour at room temperature. Primary antibodies were used at a 1:200-1:1000 concentration in TBST with 5% nonfat milk overnight at 4° C. Immunodetection of β-actin/GPDH was performed as an internal control. Dye 800/680 secondary antibodies were added at a concentration of 1:15000 for 1 hour at room temperature (LI-COR® Biosciences, NE, USA). Detection was carried out with LI-CORE® Odyssey® imaging system. Quantification of signals was carried out with the Odyssey® program.
The mechanism of action of peptidomimetics of SEQ ID NOs:1, 2 and 12 was studied in vitro in cardiomyocytes, under hypoxic conditions, by determining the expression level of the IκB gene, which is regulated by activation of TLR4, and by measuring the TLR4 mRNA levels. In addition, TLR4 expression level was measured in macrophage (derived from monocytes) treated with LPS.
IκB protein level was determined by Western blot as described in Material and Methods. The amount of IκB was normalized via-a-vis the amount of β-actin serving as the loading control (the β-actin is coded by a housekeeping gene and its level is expected to remain constant under any experimental conditions).

TLR4 mRNA = TLR4 mRNA level by RT-qPCR in hypoxic cardiomyocytes; type: cell-based; settings: hypoxic conditions
Experimental: Real-time RT-PCR experiments were performed in duplicates on an ABI 7900 instrument (Applied Biosystems™) using Taqman™ Master Mix (Applied Biosystems™). The average threshold cycles (Ct) of the duplicates were used to calculate the relative expression levels of the following genes: TLR4 (Applied Biosystems™ assay primer ID: Mm00569848_m1 Tlr4), TLR2 (assay primer ID: Mm01769726_m1 Tlr2), TNF-α (assay primer ID: Mm00443260_g1 Tnf) and IL-1β (assay primer ID: Mm00434228_m1 II1b) in vitro and in vivo following hypoxia or ischemia, respectively. The reference gene was TBP and the primer used was derived from mouse TATA-box binding protein (Applied Biosystems™ assay primer ID: Mm00446973_m1 Tbp). Amounts of TLR2, TLR4, TNF-α and IL-1β mRNAs in each sample were calculated relative to TBP mRNA, based on the corresponding Cts, as Relative Quantity (RQ) values, and normalized taking as 1 a randomly selected sample of the control group (TBP mRNA). Calculation were performed using the Applied Biosystems Analysis™ software (StepOnePlus V2.2.2). All mRNA scores are presented in arbitrary units.
Next, peptidomimetics of SEQ ID NOs:1 and 2 were tested for their ability to affect the expression of TLR4. The level of TLR4 mRNA was measured by real-time reverse transcriptase polymerase chain reaction (RT-qPCR) method as described in Materials and Methods. The possible effect of both compounds on expression levels of TLR2 mRNA was used as a negative control.

Row | Structure (SMILES) | CK release (primary cardiomyocytes; 20 μM) | LDH release (primary cardiomyocytes; 20 μM) | inhibition of decrease of IκB protein level (IκB; 20 μM, compared to hypoxic cells not treated) | inhibition of TLR4 mRNA production (TLR4 mRNA) [fold] | minimal effective concentration (cardioprotective effect, CK and LDH release) (primary cardiomyocytes) [µM] | IκB level (IκB; normalized to β-actin) | TLR4 mRNA expression level (TLR4 mRNA)
1 | CCCCCCCCNc1nc(=O)n(Cc2ccccc2)cc1C [PM6, 1-benzyl-5-methyl-4-(octylamino)pyrimidin-2(1H)-one] | significant reduction | significant reduction | roughly 7 fold | ~3.3 |  |  | 
2 | CC[C@H](C)[C@H](NC(C)=O)C(=O)N[C@H](C(=O)N[C@@H](Cc1ccccc1)C(=O)N[C@@H](C)C(N)=O)C(C)C [SEQ ID NO:1, (2S,3S)-2-acetamido-N-((S)-1-(((S)-1-(((S)-1-amino-1-oxopropan-2-yl)amino)-1-oxo-3-phenylpropan-2-yl)amino)-3-methyl-1-oxobutan-2-yl)-3-methylpentanamide] (Ac-IVFA-NH2) |  |  |  |  | 1 | high levels | significantly decreased
